{"source": "BindingDB's records for doi:10.1016/0960-894X(96)00186-2", "about": "(1996)", "key": {"[1]": {"assay": "Compound was tested for binding activity against Opioid receptor delta 1 in bovine striatal membranes using 0.2 nM [3H]p-CI-DPDPE as the radioligand."}, "[2]": {"assay": "Compound was tested for binding activity against Opioid receptor kappa 1 in bovine striatal membranes using 1 nM [3H]U-69593 as the radioligand."}}}
{"compound": "O=C(CSSCC(=O)N[C@@]12CCC(=O)[C@@H]3Oc4c(O)ccc5c4[C@@]31CCN(CC1CCC1)[C@@H]2C5)N[C@@]12CCC(=O)[C@@H]3Oc4c(O)ccc5c4[C@@]31CCN(CC1CCC1)[C@@H]2C5", "note": "[N-CBM-TAMO]", "values": [{"measurement": "IC50", "setting": "[1]", "value": 12, "unit": "nM"}, {"measurement": "IC50", "setting": "[2]", "value": 6.3, "unit": "nM"}]}
